This note sets out measurements from ChEMBL document CHEMBL1201862, “PubChem BioAssay data set” (2004).

The target in assay [1] is T1, Rac GTPase-activating protein 1 (Homo sapiens, UniProt Q9H0H5).
T1 sequence (Q9H0H5 whole entry): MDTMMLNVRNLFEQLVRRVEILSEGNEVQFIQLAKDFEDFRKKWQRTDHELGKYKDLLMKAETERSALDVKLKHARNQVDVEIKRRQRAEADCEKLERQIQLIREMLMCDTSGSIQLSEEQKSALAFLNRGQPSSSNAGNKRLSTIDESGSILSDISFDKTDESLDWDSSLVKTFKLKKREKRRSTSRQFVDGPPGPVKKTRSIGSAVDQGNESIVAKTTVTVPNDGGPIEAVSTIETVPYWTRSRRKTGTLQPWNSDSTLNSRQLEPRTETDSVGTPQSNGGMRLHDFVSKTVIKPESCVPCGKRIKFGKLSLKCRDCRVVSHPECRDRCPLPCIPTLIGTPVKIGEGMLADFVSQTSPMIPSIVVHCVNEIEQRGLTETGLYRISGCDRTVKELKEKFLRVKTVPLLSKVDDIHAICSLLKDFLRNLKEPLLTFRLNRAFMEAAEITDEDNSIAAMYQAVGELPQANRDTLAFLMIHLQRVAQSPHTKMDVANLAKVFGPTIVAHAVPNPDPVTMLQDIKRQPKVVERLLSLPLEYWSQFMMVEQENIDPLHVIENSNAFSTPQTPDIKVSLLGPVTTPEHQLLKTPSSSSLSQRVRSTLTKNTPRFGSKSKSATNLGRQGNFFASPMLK
Put plainly: MgcRacGAP GTPase-activating activity inhibitors, confirmation, biochemical, ADP Hunter fluorescence, primary and confirmatory (AID 624330). In kind it is functional.

Another assay addresses Large T antigen (Simian virus 40, UniProt P03070). In kind it is functional, Betapolyomavirus macacae.
Another assay has as its target T2, Protein skinhead-1 (Caenorhabditis elegans, UniProt P34707).
T2 sequence (P34707 whole entry): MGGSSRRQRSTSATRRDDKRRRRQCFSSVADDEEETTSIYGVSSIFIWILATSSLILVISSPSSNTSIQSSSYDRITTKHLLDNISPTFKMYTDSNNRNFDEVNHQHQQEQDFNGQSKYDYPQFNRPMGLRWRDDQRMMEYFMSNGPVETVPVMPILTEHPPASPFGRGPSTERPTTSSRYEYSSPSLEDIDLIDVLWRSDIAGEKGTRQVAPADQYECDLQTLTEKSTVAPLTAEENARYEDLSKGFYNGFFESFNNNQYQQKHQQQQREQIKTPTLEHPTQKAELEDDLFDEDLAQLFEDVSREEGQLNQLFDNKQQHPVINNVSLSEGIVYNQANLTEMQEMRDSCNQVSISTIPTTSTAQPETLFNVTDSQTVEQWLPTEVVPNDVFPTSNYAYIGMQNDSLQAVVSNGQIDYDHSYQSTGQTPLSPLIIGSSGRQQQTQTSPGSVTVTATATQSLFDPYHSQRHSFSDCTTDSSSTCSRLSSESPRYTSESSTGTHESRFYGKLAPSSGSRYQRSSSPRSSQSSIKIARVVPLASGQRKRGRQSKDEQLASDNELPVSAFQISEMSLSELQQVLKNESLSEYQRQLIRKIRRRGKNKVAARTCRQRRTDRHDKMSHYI
In kind it is functional.

Assay [2] concerns the target FAD-linked sulfhydryl oxidase ALR (Homo sapiens, UniProt P55789). Put plainly: inhibitors of human ALR sulfhydryl oxidase, dose response, biochemical, H2O2 detection, luminescence, cherry-pick (AID 493248).
The target of assay [3] is T3, Replicative DNA helicase DnaB (Mycobacterium tuberculosis, UniProt P9WMR3).
T3 sequence (P9WMR3 whole entry): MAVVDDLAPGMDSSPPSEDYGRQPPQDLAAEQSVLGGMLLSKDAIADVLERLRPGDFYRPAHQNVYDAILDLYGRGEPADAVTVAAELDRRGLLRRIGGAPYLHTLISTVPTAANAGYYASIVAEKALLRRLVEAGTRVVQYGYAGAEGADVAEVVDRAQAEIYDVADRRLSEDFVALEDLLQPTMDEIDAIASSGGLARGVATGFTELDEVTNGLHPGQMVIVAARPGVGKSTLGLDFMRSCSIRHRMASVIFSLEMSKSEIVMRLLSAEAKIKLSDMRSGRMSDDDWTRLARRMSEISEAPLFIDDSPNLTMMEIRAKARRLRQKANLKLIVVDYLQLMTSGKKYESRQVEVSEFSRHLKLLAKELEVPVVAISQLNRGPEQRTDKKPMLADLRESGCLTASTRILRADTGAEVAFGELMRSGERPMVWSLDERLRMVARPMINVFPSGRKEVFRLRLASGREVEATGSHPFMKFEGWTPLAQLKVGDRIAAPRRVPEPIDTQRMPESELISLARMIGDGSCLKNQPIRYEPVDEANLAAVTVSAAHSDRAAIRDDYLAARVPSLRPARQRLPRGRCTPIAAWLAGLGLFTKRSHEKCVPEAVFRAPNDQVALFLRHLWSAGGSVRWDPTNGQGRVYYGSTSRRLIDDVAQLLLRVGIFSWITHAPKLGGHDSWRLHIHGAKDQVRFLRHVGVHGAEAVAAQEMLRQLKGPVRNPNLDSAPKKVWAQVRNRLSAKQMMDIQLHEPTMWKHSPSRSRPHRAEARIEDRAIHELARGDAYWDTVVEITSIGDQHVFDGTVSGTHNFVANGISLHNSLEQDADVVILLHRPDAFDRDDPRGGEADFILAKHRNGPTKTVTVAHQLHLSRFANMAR
Put plainly: DnaB intein splicing inhibitors, dose response, biochemical, cell-free fluorescence (AID 449749). In kind it is functional.

Another assay deals with Genome polyprotein (dengue virus type 2, UniProt P29990). Put plainly: Dengue-2 NS5 methyltransferase inhibitors, primary screen, biochemical, confirmation dose response (AID 588689). Format: functional.
Genome polyprotein, sequence (P29990 2492-3391 limits assumed): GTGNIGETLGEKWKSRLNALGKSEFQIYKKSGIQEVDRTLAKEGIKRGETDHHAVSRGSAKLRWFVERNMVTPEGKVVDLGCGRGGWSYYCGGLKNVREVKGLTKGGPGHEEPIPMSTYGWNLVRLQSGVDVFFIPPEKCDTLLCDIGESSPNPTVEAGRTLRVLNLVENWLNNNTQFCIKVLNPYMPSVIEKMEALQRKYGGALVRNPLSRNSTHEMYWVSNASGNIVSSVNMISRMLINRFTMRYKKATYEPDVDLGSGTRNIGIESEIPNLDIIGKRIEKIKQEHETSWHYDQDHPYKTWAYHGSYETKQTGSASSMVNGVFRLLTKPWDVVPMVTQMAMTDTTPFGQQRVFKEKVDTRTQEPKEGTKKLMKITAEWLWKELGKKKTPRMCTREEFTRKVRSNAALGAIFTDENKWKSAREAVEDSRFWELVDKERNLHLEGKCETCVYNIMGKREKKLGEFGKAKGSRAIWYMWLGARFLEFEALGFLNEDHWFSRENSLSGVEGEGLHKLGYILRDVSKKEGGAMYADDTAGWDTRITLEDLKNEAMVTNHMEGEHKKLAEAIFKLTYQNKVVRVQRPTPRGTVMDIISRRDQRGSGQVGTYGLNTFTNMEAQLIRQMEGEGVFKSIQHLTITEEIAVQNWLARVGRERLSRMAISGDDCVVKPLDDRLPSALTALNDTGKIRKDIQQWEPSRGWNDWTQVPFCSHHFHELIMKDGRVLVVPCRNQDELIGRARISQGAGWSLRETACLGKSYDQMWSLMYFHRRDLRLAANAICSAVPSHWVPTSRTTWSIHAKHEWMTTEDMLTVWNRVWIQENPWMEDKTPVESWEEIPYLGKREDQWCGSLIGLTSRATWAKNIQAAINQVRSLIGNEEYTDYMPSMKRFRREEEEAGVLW
Another assay deals with T4, Protein RecA (Mycobacterium tuberculosis, UniProt P9WHJ3).
T4 sequence (P9WHJ3 whole entry): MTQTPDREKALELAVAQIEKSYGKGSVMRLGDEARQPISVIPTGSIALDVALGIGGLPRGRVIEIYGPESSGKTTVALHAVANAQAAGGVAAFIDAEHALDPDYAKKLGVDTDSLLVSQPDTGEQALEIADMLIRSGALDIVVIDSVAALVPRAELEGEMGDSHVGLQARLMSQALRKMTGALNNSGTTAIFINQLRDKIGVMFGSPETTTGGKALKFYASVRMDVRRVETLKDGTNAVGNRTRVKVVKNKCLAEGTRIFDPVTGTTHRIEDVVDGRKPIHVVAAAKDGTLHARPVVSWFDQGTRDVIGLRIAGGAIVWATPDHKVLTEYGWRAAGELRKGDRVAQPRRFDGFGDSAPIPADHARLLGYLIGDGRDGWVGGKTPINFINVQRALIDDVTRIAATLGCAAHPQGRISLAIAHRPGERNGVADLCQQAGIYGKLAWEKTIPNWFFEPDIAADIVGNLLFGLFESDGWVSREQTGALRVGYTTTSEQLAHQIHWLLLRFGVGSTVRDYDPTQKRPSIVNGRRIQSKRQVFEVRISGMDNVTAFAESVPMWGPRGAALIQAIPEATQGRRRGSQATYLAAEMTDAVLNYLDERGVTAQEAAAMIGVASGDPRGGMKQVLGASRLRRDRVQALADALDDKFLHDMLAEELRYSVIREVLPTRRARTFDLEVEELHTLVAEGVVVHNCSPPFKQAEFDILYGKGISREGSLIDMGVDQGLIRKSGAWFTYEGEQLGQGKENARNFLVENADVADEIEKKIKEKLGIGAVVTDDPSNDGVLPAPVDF
The experiment in a line: Fluorescence Cell-Free Homogeneous Dose Retest to Identify Inhibitors of RecA-Intein Splicing Activity. [Related pubchem assays (depositor defined):AID2097, AID2223, AID489010, AID492950]. Format: functional.

Assay [4] is described as follows: Luminescence Cell-Based Dose Confirmation HTS to Identify Activators of 5'UTR Stem-Loop Driven Alpha-Synuclein mRNA Translation in H4 Neuroglioblastoma Cells. [Related pubchem assays: 1829 (Project Summary), 1814 (Primary HTS)]. Format: functional.
For assay [5], the target named is T5, RNA-binding protein pos-1 (Caenorhabditis elegans, UniProt G5EF15).
T5 sequence (G5EF15 whole entry): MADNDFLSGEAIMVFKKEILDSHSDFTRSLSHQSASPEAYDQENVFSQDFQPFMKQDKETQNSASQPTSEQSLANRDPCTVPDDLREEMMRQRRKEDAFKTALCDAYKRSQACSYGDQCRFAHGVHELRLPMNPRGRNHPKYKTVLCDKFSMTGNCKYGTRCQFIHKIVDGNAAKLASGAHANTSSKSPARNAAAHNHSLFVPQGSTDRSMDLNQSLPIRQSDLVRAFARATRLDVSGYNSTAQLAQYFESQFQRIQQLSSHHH
Put plainly: inhibitors of POS-1/mex-3 RNA binding, dose response, biochemical, fluorescence polarization (AID 1964).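 Further: purified POS-1 fused to maltose binding protein made in E. coli; potency of compounds blocking POS-1 binding to fluorescent RNA.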

Assay [6] has as its target T6, Zinc finger protein mex-5 (Caenorhabditis elegans, UniProt Q9XUB2).
T6 sequence (Q9XUB2 whole entry): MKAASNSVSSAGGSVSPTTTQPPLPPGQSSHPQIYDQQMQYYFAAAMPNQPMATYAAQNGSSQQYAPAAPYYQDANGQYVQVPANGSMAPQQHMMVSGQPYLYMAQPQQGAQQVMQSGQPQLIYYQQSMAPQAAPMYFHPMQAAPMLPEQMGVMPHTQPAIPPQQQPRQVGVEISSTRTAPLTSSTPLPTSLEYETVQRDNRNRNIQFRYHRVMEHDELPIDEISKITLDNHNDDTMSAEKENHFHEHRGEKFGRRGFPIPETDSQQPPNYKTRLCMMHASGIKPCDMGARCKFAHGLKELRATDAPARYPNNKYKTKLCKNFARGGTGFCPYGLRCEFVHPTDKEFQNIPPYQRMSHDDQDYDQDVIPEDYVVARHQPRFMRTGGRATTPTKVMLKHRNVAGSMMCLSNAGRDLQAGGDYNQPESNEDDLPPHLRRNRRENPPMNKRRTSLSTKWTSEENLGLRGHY
The experiment in a line: MEX-5/TCR-2 RNA interaction inhibitors, dose response, biochemical, C. elegans, fluorescence polarization (AID 1960). A general note: In fluorescence polarisation assays a small probe gives low polarisation when free and higher when bound to something large.

Assay [7] deals with T7, Corticotropin-releasing factor receptor 2/Corticotropin-releasing factor-binding protein (Homo sapiens, UniProt P24387+Q13324).
T7 sequence (Q13324 whole entry): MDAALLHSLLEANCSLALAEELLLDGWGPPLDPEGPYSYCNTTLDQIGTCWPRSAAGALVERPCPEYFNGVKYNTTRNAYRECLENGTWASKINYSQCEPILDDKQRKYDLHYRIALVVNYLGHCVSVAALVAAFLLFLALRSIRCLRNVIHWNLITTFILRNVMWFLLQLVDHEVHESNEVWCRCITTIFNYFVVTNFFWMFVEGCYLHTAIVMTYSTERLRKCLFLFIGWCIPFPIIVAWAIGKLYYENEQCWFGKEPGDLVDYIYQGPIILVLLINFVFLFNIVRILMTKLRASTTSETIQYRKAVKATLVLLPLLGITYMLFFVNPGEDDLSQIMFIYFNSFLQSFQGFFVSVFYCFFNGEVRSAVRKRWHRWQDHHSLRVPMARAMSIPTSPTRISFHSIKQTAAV
T7 sequence (P24387 whole entry): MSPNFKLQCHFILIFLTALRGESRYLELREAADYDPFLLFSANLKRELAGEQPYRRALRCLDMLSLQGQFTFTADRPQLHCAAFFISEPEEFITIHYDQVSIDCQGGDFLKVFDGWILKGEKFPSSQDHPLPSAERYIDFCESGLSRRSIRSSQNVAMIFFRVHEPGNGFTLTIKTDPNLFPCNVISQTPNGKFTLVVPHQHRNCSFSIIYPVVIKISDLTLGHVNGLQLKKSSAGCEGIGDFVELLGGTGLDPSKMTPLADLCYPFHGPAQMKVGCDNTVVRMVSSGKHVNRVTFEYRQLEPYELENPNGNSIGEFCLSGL
The experiment in a line: activators of CRF receptor 2 with binding protein – uHTS hits, confirmation (AID 602473). In kind it is functional. As to conditions: read-out: EC50_Mean.

A short description of assay [8]: Luminescence Cell-Based Dose Response HTS to Identify Activators of Luciferase Translation or Activity in H4 […] Cells. [Related pubchem assays: 1829 (Project Summary), 1814 (Primary HTS)]. In kind it is functional.
The subject of a further assay is H4. The experiment in a line: Luminescence Cell-Based Dose Response HTS to Identify Activators of 5'UTR Stem-Loop Driven Prion Protein mRNA Translation in H4 Neuroglioblastoma Cells. [Related pubchem assays: 1829 (Project Summary), 1814 (Primary HTS)]. Format: functional. The note with it: Homo sapiens.

Each structure is given as a SMILES string. Activity calls are given as the source filed them.

Large T antigen, sequence (P03070 whole entry): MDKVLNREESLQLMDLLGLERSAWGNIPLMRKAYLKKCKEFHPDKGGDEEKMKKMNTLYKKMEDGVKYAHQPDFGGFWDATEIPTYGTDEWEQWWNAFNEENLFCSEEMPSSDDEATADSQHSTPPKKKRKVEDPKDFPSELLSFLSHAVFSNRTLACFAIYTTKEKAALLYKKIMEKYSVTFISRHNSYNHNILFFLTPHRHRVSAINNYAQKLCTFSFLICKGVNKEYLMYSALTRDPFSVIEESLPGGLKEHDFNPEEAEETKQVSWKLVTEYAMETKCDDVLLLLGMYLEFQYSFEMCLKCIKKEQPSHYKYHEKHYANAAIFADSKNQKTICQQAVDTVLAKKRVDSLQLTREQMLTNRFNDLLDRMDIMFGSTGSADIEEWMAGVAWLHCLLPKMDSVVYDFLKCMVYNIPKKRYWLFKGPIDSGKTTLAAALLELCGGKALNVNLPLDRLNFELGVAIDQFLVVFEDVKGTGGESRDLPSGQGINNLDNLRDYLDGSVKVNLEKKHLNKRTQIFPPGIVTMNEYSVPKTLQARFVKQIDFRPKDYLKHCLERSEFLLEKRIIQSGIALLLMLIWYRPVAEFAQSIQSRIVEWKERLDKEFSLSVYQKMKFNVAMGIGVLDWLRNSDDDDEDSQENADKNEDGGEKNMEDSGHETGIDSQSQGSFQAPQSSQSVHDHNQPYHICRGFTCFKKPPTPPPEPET
FAD-linked sulfhydryl oxidase ALR, sequence (P55789 whole entry): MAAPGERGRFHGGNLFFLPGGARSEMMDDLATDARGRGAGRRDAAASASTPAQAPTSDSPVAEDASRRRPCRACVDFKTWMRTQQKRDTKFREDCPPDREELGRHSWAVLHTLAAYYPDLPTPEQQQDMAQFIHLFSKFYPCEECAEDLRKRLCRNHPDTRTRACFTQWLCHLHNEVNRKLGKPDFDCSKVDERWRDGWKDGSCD

Usually IC50 stands for the point on the concentration scale where inhibition reaches its midpoint. For `COc1cc(/C=N/NC(=O)c2cnccn2)ccc1O`, the IC50 in [1] was 20.3 µM (active); on Large T antigen, 5.52 µM (active).

For `Clc1cc(NCc2cccs2)ccc1N1CCOCC1`, the IC50 on Protein skinhead-1 was > 100 µM (inactive); on Large T antigen, 65.2 µM (active).

A word on the AC50: it is the midpoint of the concentration-response curve, whichever way the signal moves. As for `COc1ccc(NC2CCCN(C(=O)CCn3cccn3)C2)cc1` (stereo not drawn), the AC50 in assay [2] was 2.78 µM (active). At Large T antigen, the IC50 was 9.68 µM (active).

For `O=C1C(Cl)=C(N2CCOCC2)C(=O)N1c1ccc(Br)cc1`, in [3], the half-maximal activity concentration (AC50) was 4.11 µM (active). Also, the half-maximal inhibitory concentration (IC50) on Genome polyprotein was 36.2 µM (active). Further, the EC50 at Protein RecA is 2.11 µM (active).

Turning to `CN1C(=O)C(=Cc2ccccc2Oc2ccc(Cl)cc2)C(=O)N(C)C1=O`, on Genome polyprotein, the IC50 is 41.5 µM (active).

`O=C(Nc1ccc(O)cc1)C1CCCO1` (stereo not drawn): at Large T antigen, the IC50 is 28.1 µM (active).

Turning to `Cc1cccc(-n2c(C)cc(C=C3C(=O)c4ccccc4C3=O)c2C)c1`, the EC50 in [4] is 54.2 µM (active); in assay [5] it was 46.6 µM (active); in [6], 34.7 µM (inconclusive); in assay [7], 12.9 µM (active); in assay [8], 11.4 µM (active); in the assay on H4, 7.1 µM (active).

On to `CN(C)c1ccc(/C=C/c2cc[n+]([O-])cc2)cc1`, for which the IC50 on Large T antigen was 11.4 µM (active).
